Data taken from patent US20230219911A1, “BENZOTHIAZOLE DERIVATIVES AND USES THEREOF” (SHENYANG PHARMACEUTICAL UNIVERSITY, priority 2020, published 2023).

target: T1, sEH enzyme (human recombinant) (Homo sapiens, UniProt P34913); experiment: in vitro sEH enzyme activity by fluorescence analysis, single concentration inhibition; type: biochemical; details: compound 0.1 μM; human recombinant sEH; PHOME substrate; 37° C. 15 min; read-out: sEH % inhibition, @ 0.1 μM
T1 construct: purchased Cayman Chemical
T1 sequence (P34913 1-555): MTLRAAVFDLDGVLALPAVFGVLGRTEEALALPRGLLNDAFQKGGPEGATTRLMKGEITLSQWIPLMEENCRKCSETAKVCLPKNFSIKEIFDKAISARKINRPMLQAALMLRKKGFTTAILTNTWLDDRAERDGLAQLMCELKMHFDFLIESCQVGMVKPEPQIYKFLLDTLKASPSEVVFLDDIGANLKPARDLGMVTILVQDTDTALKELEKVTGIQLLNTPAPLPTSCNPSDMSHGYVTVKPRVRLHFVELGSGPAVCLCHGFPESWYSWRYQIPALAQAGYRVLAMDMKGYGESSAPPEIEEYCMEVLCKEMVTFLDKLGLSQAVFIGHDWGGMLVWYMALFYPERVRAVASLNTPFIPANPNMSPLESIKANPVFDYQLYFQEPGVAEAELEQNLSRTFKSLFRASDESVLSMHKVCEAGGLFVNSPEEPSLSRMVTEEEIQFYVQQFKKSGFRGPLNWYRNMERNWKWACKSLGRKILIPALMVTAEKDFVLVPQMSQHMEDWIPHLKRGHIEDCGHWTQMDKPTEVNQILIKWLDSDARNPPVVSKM
Method: The benzothiazole skeleton compounds (concentration: 0.1 μM) according to the above formula I of the present invention were tested for the in vitro sEH enzyme activity by fluorescence analysis.
12 μL of sEH enzyme (human recombinant, 0.5 mg/mL, Cayman Chemical) was diluted with 588 μL of buffer (25 mM bis-Tris, pH 7.0). The fluorescent substrate was PHOME (cyano-(6-methoxy-naphthalen-2-yl)-methyl (3-phenyl-oxiranyl)-acetate) in DMSO (10 μM, Cayman Chemical). The compound to be tested was dissolved in 100% DMSO at a concentration of 4 μM. 185 μL of buffer (25 mM bis-Tris, pH 7.0), 5 μL of compound solution, and 5 μL of diluted sEH enzyme were added to the wells of a 96-well plate, and finally 5 μL of substrate solution was added to initiate the reaction. After incubating at 37° C. for 15 min, the fluorescence signal was measured with a microplate reader (excitation wavelength 330 nm, emission wavelength 465 nm).
Inhibition (%)=(F0−F1)/(F0)×100.

Row | Structure (SMILES) | inhibition at 0.1 µM [%]
1 | Nc1nc2ccc(NC(=O)NCc3ccc(Cl)cc3)cc2s1 [Example 5, 1-(2-aminobenzo[d]thiazol-6-yl)-3-(4-chlorobenzyl)urea] | 47
2 | CC(=O)Nc1ccc(NC(=O)N(CCN2CCOCC2)c2ccc3nc(N)sc3c2)cc1 [Example 10, 1-(2-aminobenzo[d]thiazol-6-yl)-1-[2-(4-morpholinyl)ethyl]-3-(4-acetamidophenyl)urea] | 2.16
3 | CN1CCN(CCN(C(=O)Nc2ccc(C(F)(F)F)cc2)c2ccc3nc(N)sc3c2)CC1 [Example 23, 1-(2-aminobenzo[d]thiazol-6-yl)-1-[2-(4-methylpiperazin-1-yl)ethyl]-3-(4-trifluoromethylphenyl)urea] | 43.7
4 | CC(C)(C)OC(=O)Nc1nc2ccc(N(CCN3CCOCC3)C(=O)Cc3ccc(Cl)cc3)cc2s1 [Example 31, tert-butyl (6-{2-(4-chlorophenyl)-N-[2-(4-morpholinyl)ethyl]acetamido}benzo[d]thiazol-2-yl)carbamate] | 70.9
5 | Nc1nc2ccc(NC(=O)NC3CCCCC3)cc2s1 [Example 6, 1-(2-aminobenzo[d]thiazol-6-yl)-3-cyclohexylurea] | 2.15
6 | Nc1nc2ccc(N(CCN3CCOCC3)C(=O)Nc3ccc([N+](=O)[O-])cc3)cc2s1 [Example 8, 1-(2-aminobenzo[d]thiazol-6-yl)-1-[2-(4-morpholinyl)ethyl]-3-(4-nitrophenyl)urea] | 19.2
7 | CC(=O)c1ccc(NC(=O)N(CCN2CCOCC2)c2ccc3nc(N)sc3c2)cc1 [Example 9, 1-(2-aminobenzo[d]thiazol-6-yl)-1-[2-(4-morpholinyl)ethyl]-3-(4-acetylphenyl)urea] | 28.2
8 | Nc1nc2ccc(N(CCN3CCOCC3)C(=O)Nc3cccc4ccccc34)cc2s1 [Example 15, 1-(2-aminobenzo[d]thiazol-6-yl)-1-[2-(4-morpholinyl)ethyl]-3-(naphthalen-1-yl)urea] | 39
9 | CCN(CC)CCN(C(=O)Nc1ccc(Cl)cc1)c1ccc2nc(N)sc2c1 [Example 21, 1-(2-aminobenzo[d]thiazol-6-yl)-1-[2-(N,N-diethylamino)ethyl]-3-(4-chlorophenyl)urea] | 86.2
10 | CC(C)c1ccc(NC(=O)N(CCN2CCOCC2)c2ccc3nc(N)sc3c2)cc1 [Example 20, 1-(2-aminobenzo[d]thiazol-6-yl)-1-[2-(4-morpholinyl)ethyl]-3-(4-isopropylphenyl)urea] | 75.2
11 | CC1CCN(CCN(C(=O)Nc2ccc(Cl)cc2)c2ccc3nc(N)sc3c2)CC1 [Example 22, 1-(2-aminobenzo[d]thiazol-6-yl)-1-[2-(4-methylpiperidin-1-yl)ethyl]-3-(4-chlorophenyl)urea] | 67.5
12 | Nc1nc2ccc(NC(=O)Nc3ccccc3)cc2s1 [Example 3, 1-(2-aminobenzo[d]thiazol-6-yl)-3-phenylurea] | 32.9
13 | Nc1nc2ccc(N(CCN3CCOCC3)C(=O)Nc3ccc(OC(F)(F)F)cc3)cc2s1 [Example 17, 1-(2-aminobenzo[d]thiazol-6-yl)-1-[2-(4-morpholinyl)ethyl]-3-(4-trifluoromethoxyphenyl)urea] | 70.3
14 | NC(=O)Nc1ccc2nc(N)sc2c1 [Example 2, 1-(2-aminobenzo[d]thiazol-6-yl)urea] | 11.7
15 | Nc1nc2ccc(N(CCN3CCOCC3)C(=O)Nc3ccccn3)cc2s1 [Example 14, 1-(2-aminobenzo[d]thiazol-6-yl)-1-[2-(4-morpholinyl)ethyl]-3-(pyridin-2-yl)urea] | 16.2
16 | CC(C)Oc1ccc(NC(=O)N(CCN2CCOCC2)c2ccc3nc(N)sc3c2)cc1 [Example 19, 1-(2-aminobenzo[d]thiazol-6-yl)-1-[2-(4-morpholinyl)ethyl]-3-(4-isopropoxyphenyl)urea] | 76.6

Now from value to compound:

Row | inhibition at 0.1 µM [%] | Structure (SMILES)
17 | 45.2 | CC(=O)Nc1nc2cnc(N(CCN3CCOCC3)C(=O)Nc3cccnc3)nc2s1 [Example 45, 1-(2-acetamidothiazo[5,4-d]pyrimidin-5-yl)-1-[2-(4-morpholinyl)ethyl]-3-(pyridin-3-yl)urea]
18 | 45.6 | CC(=O)Nc1nc2ccc(N(CCN3CCOCC3)C(=O)Nc3ccc(C)cc3)cc2o1 [Example 36, 1-(2-acetamidobenzo[d]oxazol-6-yl)-1-[2-(4-morpholinyl)ethyl]-3-(4-methylphenyl)urea]
19 | 32.5 | O=C(Cc1ccccc1)Nc1nc2ccc(N(CCN3CCOCC3)C(=O)Nc3ccc(C(F)(F)F)cc3)cc2s1 [Example 34, 1-(2-phenylacetamidobenzo[d]thiazol-6-yl)-1-[2-(4-morpholinyl)ethyl]-3-(4-trifluoromethylphenyl)urea]
20 | 78.2 | CCOC(=O)CNc1nc2cnc(N(CCN3CCOCC3)C(=O)Nc3ccc(OC(F)(F)F)cc3)cc2s1 [Example 43]
21 | 28.4 | Nc1nc2ccc(N(CCN3CCCC3)C(=O)Nc3ccc(Cl)cc3)cc2s1 [Example 24, 1-(2-aminobenzo[d]thiazol-6-yl)-1-[2-(pyrrolidin-1-yl)ethyl]-3-(4-chlorophenyl)urea]
22 | 57.2 | Nc1nc2ccc(N(CCN3CCOCC3)C(=O)Nc3ccc(F)cc3)nc2s1 [Example 38, 1-(2-aminothiazo[5,4-b]pyridin-5-yl)-3-(4-fluorophenyl)-1-[2-(4-morpholinyl)ethyl]urea]
23 | 34.7 | Nc1nc2cnc(N(CCN3CCOCC3)C(=O)Nc3ccc(OC(F)(F)F)cc3)cc2s1 [Example 41, 1-(2-aminothiazo[4,5-c]pyridin-6-yl)-1-[2-(4-morpholinyl)ethyl]-3-(4-trifluoromethoxyphenyl)urea]
24 | 41.5 | CCNc1nc2ccc(N(CCN3CCOCC3)C(=O)Nc3ccc(F)cc3)nc2s1 [Example 39, 1-[2-(ethylamino)thiazo[5,4-b]pyridin-5-yl]-1-[2-(4-morpholinyl)ethyl]-3-(4-fluorophenyl)urea]
25 | 66.8 | Cc1ccc(NC(=O)N(CCN2CCOCC2)c2ccc3nc(NC(=O)Cc4ccccc4)oc3c2)cc1 [Example 37, 1-(2-phenylacetamidobenzo[d]oxazol-6-yl)-1-[2-(4-morpholinyl)ethyl]-3-(4-methylphenyl)urea]
26 | 77.6 | O=C(Nc1nc2ccc(N(CCN3CCOCC3)C(=O)Nc3ccc(Cl)cc3)cc2s1)c1ccccc1 [Example 32, 1-(2-phenylformamidobenzo[d]thiazol-6-yl)-1-[2-(4-morpholinyl)ethyl]-3-(4-chlorophenyl)urea]
27 | 36.5 | Nc1nc2ccc(N(CCCN3CCOCC3)C(=O)Nc3ccc(Cl)cc3)cc2s1 [Example 26, 1-(2-aminobenzo[d]thiazol-6-yl)-1-[3-(4-morpholinyl)propyl]-3-(4-chlorophenyl)urea]
28 | 32.5 | O=C(NCc1ccccc1)Nc1nc2ncc(N(CCN3CCOCC3)C(=O)Nc3ccc(Br)c(F)c3)cc2s1 [Example 47, 1-[2-(3-benzylureido)thiazo[4,5-b]pyridin-6-yl]-1-[2-(4-morpholinyl)ethyl]-3-(4-bromo-3-fluorophenyl)urea]
29 | 67.9 | O=C(CCc1ccccc1)Nc1nc2cnc(N(CCN3CCOCC3)C(=O)Nc3cccnc3)nc2s1 [Example 46]
30 | 90.5 | CCOC(=O)Nc1nc2ccc(N(CCN3CCOCC3)C(=O)Nc3ccc(Cl)cc3)cc2s1 [Example 28, 1-[2-(2-ethoxyformamido)benzo[d]thiazol-6-yl]-1-[2-(4-morpholinyl)ethyl]-3-(4-chlorophenyl)urea]
31 | 15.8 | O=C(CCc1ccccc1)Nc1nc2ccc(N(CCN3CCOCC3)C(=O)Nc3ccc(Cl)cc3)cc2s1 [Example 33]
32 | 55.9 | Nc1nc2cnc(N(CCN3CCOCC3)C(=O)Nc3cccnc3)nc2s1 [Example 44, 1-(2-aminothiazo[5,4-d]pyrimidin-5-yl)-1-[2-(4-morpholinyl)ethyl]-3-(pyridin-3-yl)urea]
33 | 52.1 | O=C(Nc1nc2cnc(N(CCN3CCOCC3)C(=O)Nc3ccc(OC(F)(F)F)cc3)cc2s1)C1CC1 [Example 42, 1-(2-cyclopropylformamidothiazo[4,5-c]pyridin-6-yl)-1-[2-(4-morpholinyl)ethyl]-3-(4-trifluoromethoxyphenyl)urea]
34 | 10.3 | Cc1ccc(NC(=O)N(CCN2CCOCC2)c2ccc3nc(N)oc3c2)cc1 [Example 35, 1-(2-aminobenzo[d]oxazol-6-yl)-1-[2-(4-morpholinyl)ethyl]-3-(4-methylphenyl)urea]
